Measured values taken from patent US10864246B2, “Method for lowering triglyceride” (Centro De Investigación En Alimentación Y Desarrollo, A.C. …, priority 2011, dated 2020).

How the values were obtained:
[1] = system: spontaneously hypertensive rats (SHR); experiment: Single-dose oral administration in SHR, tail cuff blood pressure and heart rate; assay type: in vivo, rat; details: single oral dose 40 mg/kg BW
Procedure: However, the relationship between ACEI and the in vivo action had to be tested. Therefore, the antihypertensive and heart rate (HR) lowering effect of milk fermented by specific L. lactis in a murine model was investigated. Spontaneously hypertensive male rats (SHR) (271±14 g) were randomized into […]: oral administration of milk fermented by L. lactis NRRL B-50571 or L. lactis NRRL B-50572 at 35 or 50 mg protein/kg of body weight (BW). Two more groups were fed with different solutions as controls: a saline solution was the negative control, meanwhile captopril (40 mg/kg BW), a proven ACE inhibitor was the positive control. Blood pressure and heart rate were monitored by the tail cuff method before treatments and 2, 4, 6 and 24 h post oral administration. […] Thus, milk fermented by specific L. lactis strains present potential benefits in the prevention and treatment of cardiovascular diseases associated to hypertension in humans. Samples of specific L. lactis fermented milk (prepared as previously described) for the single dose bioassay were obtained by centrifugation at 20,000×g for 10) min at 0° C. […] SHR were weaned for eight weeks and their systolic blood pressure monitored during this period. […] Systolic blood pressure (SBP), diastolic blood pressure (DBP) as well as heart rate (HR) were monitored before administration and 2, 4, 6 and 24 h post-administration. […]

[2] = system: spontaneously hypertensive rats (SHR); experiment: Long-term (4 weeks) consumption in SHR, tail-cuff blood pressure; assay type: in vivo, rat
Procedure: SHR were feed ad libitum with milk fermented by L. lactis NRRL B-50571, L. lactis NRRL B-50572, captopril (40 mg/kg body weight) or purified water for four weeks. […] Additionally, milk fermented by L. lactis strains modified SHR lipid profiles. Milk fermented by L. lactis NRRL B-50571 and B-50572 was able to reduce plasma low-density lipoprotein (LDL) cholesterol by 55.4±3 mg/dL and 66.3±4 mg/dL, respectively. Thus, milk fermented by L. lactis strains may be a coadjuvant in the reduction of hypertension and hyperlipidemia and may be used as a functional food for better cardiovascular health. […] Subsequently, samples were frozen at −20° C. All fermented milk samples were daily unfrozen and homogenized (for 20 minutes before use. Thirty-two male SHR were obtained from Harlan Laboratories, Inc., (Indianapolis, Ill., USA). The rats were randomly housed in pairs per cage at 21±2° C. with 12 h light/dark cycles, 52±6% relative humidity and with ad libitum intake of a standard diet (TEKLAD, Harlan Laboratories, USA) during the experiment. SHR (27-28 weeks old and 355±24 g weight) were divided into four groups of eight rats (n=8): purified water (negative control), captopril (proven hypotensive drug, positive control) (40 mg/kg body weight (BW), milk fermented by L. lactis NRRL B-50571 and milk fermented by L. lactis NRRL 50572. All SHR had free access to each treatment during three weeks as part of the protocol. Half of the animals were sacrificed at the end of that period. The rest of the SHR only received purified water during one more week before being sacrificed. A research animal protocol was followed according to the guidelines established by the institutional (CIAD, A.C.) Ethics Committee. The lowering blood pressure effect of milk fermented by specific L. lactis strains on SHR was monitored through time. […] Systolic (SBP) and diastolic (DBP) blood pressures were measured five times on each conscious animal before treatments and every week during the experiment. […]

Question: For `C[C@H](CS)C(=O)N1CCC[C@H]1C(=O)O` [captopril], which “decrease of SBP” value ([1]; 6 h, significantly different from the treatments) is on record?
Answer: maximum decrease

Question: And the DBP reduction ([1]; each measurement (2, 4, 6, 24 h))?
Answer: maximum DBP reduction

Question: And the SBP reduction ([2]; fourth week (only water in last week), fermented milk ad libitum, captopril 40 mg/kg BW)?
Answer: 28.1±1.8 mm Hg

Question: What about the “effect on SBP” value ([2]; second and third week) of the same compound?
Answer: marked lowering-effect

Question: What about the DBP reduction ([2]; second week, fermented milk ad libitum, captopril 40 mg/kg BW) of the same compound?
Answer: 38.4±8.5 mm Hg
